# Read-outs that look alike come from different tables or passages of the source.
# T1: recombinant TgCoq1 (Toxoplasma gondii, UniProt S8EY63)
# T1 sequence (S8EY63 152-676): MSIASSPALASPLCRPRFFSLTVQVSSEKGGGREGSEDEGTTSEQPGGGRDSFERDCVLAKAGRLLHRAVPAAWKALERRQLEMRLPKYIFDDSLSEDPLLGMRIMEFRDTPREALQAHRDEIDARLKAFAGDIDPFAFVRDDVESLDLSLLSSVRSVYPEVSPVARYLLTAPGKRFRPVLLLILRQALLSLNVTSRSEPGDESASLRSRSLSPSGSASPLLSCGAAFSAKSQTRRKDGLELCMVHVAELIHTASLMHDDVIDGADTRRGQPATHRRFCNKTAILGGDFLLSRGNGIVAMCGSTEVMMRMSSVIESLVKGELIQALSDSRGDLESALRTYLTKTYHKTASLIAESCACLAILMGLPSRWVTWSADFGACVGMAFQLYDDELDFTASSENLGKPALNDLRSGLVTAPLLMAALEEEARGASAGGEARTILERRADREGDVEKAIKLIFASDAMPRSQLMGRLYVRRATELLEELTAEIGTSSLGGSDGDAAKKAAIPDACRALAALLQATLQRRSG
# B1: recombinant TgCoq1 (Toxoplasma gondii ME49) (protein)
# chain: MSIASSPALASPLCRPRFFSLTVQVSSEKGGGREGSEDEGTTSEQPGGGRDSFERDCVLAKAGRLLHRAVPAAWKALERRQLEMRLPKYIFDDSLSEDPLLGMRIMEFRDTPREALQAHRDEIDARLKAFAGDIDPFAFVRDDVESLDLSLLSSVRSVYPEVSPVARYLLTAPGKRFRPVLLLILRQALLSLNVTSRSEPGDESASLRSRSLSPSGSASPLLSCGAAFSAKSQTRRKDGLELCMVHVAELIHTASLMHDDVIDGADTRRGQPATHRRFCNKTAILGGDFLLSRGNGIVAMCGSTEVMMRMSSVIESLVKGELIQALSDSRGDLESALRTYLTKTYHKTASLIAESCACLAILMGLPSRWVTWSADFGACVGMAFQLYDDELDFTASSENLGKPALNDLRSGLVTAPLLMAALEEEARGASAGGEARTILERRADREGDVEKAIKLIFASDAMPRSQLMGRLYVRRATELLEELTAEIGTSSLGGSDGDAAKKAAIPDACRALAALLQATLQRRSG
# How the values were obtained:
# [1] = test system: T. gondii iΔCoq1 (+ATc) mutant; assay: Rescue of the growth defect of the iΔCoq1 (+ATc) mutant by ubiquinones; format: cell-based, Toxoplasma gondii
# Procedure: To further validate the role of TgCoq1 in the synthesis of ubiquinone, we tested if supplementing cultures of the iΔCoq1 (+ATc) mutant with various ubiquinones would rescue the growth defect (Fig. 7). Because UQ7 is not commercially available, we tested UQ6, UQ8, and UQ10 and observed a remarkable rescue of the growth of the iΔCoq1 (+ATc) mutant by UQ6 (Fig. 7A).
# Experiments on T. gondii tachyzoites were carried out using parasites expressing red fluorescent protein (RFP) ([66]) with the modification described by Recher et al. ([67]). Tachyzoites were maintained in human fibroblasts (hTERT cells). For drug testing and growth assays, parasites were purified by passing them through a 25-gauge needle, followed by filtration through a 3-μm filter. Human fibroblasts were cultured in 96-well black-sided plates for 24 h before the addition of 4,000 fluorescent tachyzoites/well. Fluorescence values were measured for up to 9 days, and both excitation (544 nm) and emission (590 nm) were read from the bottom of the plates in a Molecular Devices plate reader ([46]). The EC50s were calculated using Prism software. The UQ6 experiments were performed using the same protocol as described above. […]
# [2] = test system: T. gondii parental strain (TatiΔku80); assay: Growth inhibition of the parental strain; format: cell-based; conditions: Toxoplasma gondii, read-out: EC50 (TatiΔku80)
# Procedure: (§1) Previous work has shown that bisphosphonates can target several enzymes of the isoprenoid biosynthesis pathway, including the farnesyl diphosphate synthase (FPPS), which synthesizes FPP, the preferred substrate of TgCoq1 ([14]). […] We further determined specificity against TgCoq1, by comparing the growth inhibition of the compound against a parental strain (TatiΔku80) versus a cell line overexpressing TgCoq1 (TgCoq1-OE).
# (§2) Experiments on T. gondii tachyzoites were carried out using parasites expressing red fluorescent protein (RFP) ([66]) with the modification described by Recher et al. ([67]). Tachyzoites were maintained in human fibroblasts (hTERT cells). For drug testing and growth assays, parasites were purified by passing them through a 25-gauge needle, followed by filtration through a 3-μm filter. Human fibroblasts were cultured in 96-well black-sided plates for 24 h before the addition of 4,000 fluorescent tachyzoites/well. […] The EC50s were calculated using Prism software. The UQ6 experiments were performed using the same protocol as described above. The parasites were supplemented with 10 μM UQ6.
# [3] = test system: T. gondii TgCoq1-OE strain; assay: Growth inhibition of the TgCoq1 overexpressing strain; format: cell-based; conditions: Toxoplasma gondii, read-out: EC50 TgCoq1-OE strain
# Procedure: as §1, §2
# [4] = test system: hTERT cells; assay: Cytotoxicity to hTERT cells (alamarBlue); conditions: hTERT cells
# Procedure: The cytotoxicity was tested using an alamarBlue assay as described by Recher et al. ([67]).
# [5] = test system: T. gondii RH; assay: In vitro growth inhibition of RFP-expressing tachyzoites in hTERT fibroblasts; format: cell-based, Toxoplasma gondii; conditions: for rescue of growth inhibition by UQ6: 10 μM UQ6 added to the culture; for EC50 / IC50: Toxoplasma gondii, Fibroblast; for EC50: T. gondii RH; for IC50: T. gondii growth in vitro
# Procedure: as §2
# [6] = molecular target: recombinant TgFPPS (Toxoplasma gondii, UniProt Q197X6); assay: biochemical
# [7] = molecular target: T1, recombinant TgCoq1; assay: biochemical
# [8] = molecular target: T1, recombinant TgCoq1; assay: Kinetic parameters of recombinant TgCoq1 with allylic substrates ([4-14C]IPP incorporation); format: biochemical; conditions: allylic substrate varied, counter substrate IPP (100 μM)
# Procedure: (§3) To investigate the biochemical function of TgCoq1, we cloned the TGGT1_269430 gene in an E. coli expression plasmid, which also includes a C-terminal polyhistidine tag to facilitate the purification of the recombinant protein by affinity chromatography. The activity of the purified protein was determined using allylic substrates and cosubstrates, by measuring the amount of [4-^14C]IPP incorporated into butanol-extractable polyprenyl diphosphates (FPP and GGPP) (Fig. 2A). […] A parallel experiment with the already characterized recombinant Trypanosoma cruzi solanesyl diphosphate synthase ([26]), TcSPPS, known to synthesize a 45-carbon product, is shown in the same TLC (Fig. 2B). With the use of a standard enzymatic method ([26]), the kinetic parameters of the reaction were obtained using various concentrations of the allylic substrates (GPP, FPP, GGPP, and IPP) and keeping the concentration of counter substrates at a saturating level (Table 1). Under these experimental conditions, the enzyme was more efficient with FPP than with GGPP (Fig. 2C) or GPP as the substrate (Table 1).
# (§4) Kinetic parameters for the recombinant TgCoq1 were calculated from the activity obtained by varying the concentration of the allylic substrates (GPP, FPP, GGPP, and IPP) and keeping the concentration of counter substrates at a saturating level. The nonlinear regression analysis in Sigma plot 10.0 was used to calculate the Kinetic parameters.
# (§5) For the enzymatic activity, a standard protocol for medium/long-chain prenyl diphosphate synthase was followed as described previously ([26]). The enzyme activity was measured by assessing the amount of [4-^14C]IPP incorporated into butanol-extractable polyprenyl diphosphates. The standard assay mixture contained, in a final volume of 100 μl, Tris-HCl (100 mM, pH 7.4), 100 μM of any of the allylic substrates FPP/GGPP/GPP, 1 mM MgCl2, 1 mM DTT, 1% vol/vol Triton X-100, 100 μM [4-^14C]-IPP (1 μCi/μMol), and 500 ng of purified protein. Reaction mixtures were incubated at 37°C for 30 min unless otherwise indicated. The radioactive prenyl products were extracted with 1-butanol and washed with NaCl-saturated water, and activities were calculated from the DPM values.
# [9] = substrate: C=C(C)CCO[P@@](=O)(O)OP(=O)(O)O; assay: as above; format: biochemical, Toxoplasma gondii; conditions: pH 7.4, 37.0 °C
# Procedure: as §3, §4, §5
# [10] = substrate: CC(C)=CCC/C(C)=C/CC/C(C)=C/CO[P@@](=O)(O)OP(=O)(O)O; assay: as above; format: biochemical, Toxoplasma gondii; conditions: other: allylic substrate varied, counter substrate IPP (100 μM); pH 7.4; 37.0 °C
# Procedure: as §3, §4, §5
# [11] = at 4X EC50 (concentration in μM in brackets)
# [12] = at 10X EC50 (concentration in μM in brackets)
# [13] = other: counter substrate FPP (100 μM)
# [14] = other: counter substrate GGPP (50 μM)
# [15] = other: counter substrate GPP (150 μM)
# Sequence of recombinant TgFPPS (Q197X6 entry or part of it): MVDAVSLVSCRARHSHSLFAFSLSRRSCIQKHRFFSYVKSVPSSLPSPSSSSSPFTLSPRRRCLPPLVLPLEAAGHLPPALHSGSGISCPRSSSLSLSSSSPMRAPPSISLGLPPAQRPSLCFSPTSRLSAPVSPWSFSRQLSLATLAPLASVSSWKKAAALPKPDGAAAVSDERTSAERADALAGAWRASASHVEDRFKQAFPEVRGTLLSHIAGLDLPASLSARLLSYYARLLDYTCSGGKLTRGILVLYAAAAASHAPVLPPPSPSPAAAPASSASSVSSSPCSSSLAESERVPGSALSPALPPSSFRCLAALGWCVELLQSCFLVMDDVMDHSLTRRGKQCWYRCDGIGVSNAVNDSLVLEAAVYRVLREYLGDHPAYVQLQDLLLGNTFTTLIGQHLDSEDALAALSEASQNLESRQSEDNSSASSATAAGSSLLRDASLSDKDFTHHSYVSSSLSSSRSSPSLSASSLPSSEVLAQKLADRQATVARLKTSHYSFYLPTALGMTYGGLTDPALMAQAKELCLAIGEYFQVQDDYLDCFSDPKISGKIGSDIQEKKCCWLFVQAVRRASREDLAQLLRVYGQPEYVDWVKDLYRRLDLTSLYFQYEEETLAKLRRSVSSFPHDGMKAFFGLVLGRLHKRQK
molecule,measurement,setting,value
"COC1=C(OC)C(=O)C(C/C=C(\C)CC/C=C(\C)CC/C=C(\C)CC/C=C(\C)CC/C=C(\C)CC/C=C(\C)CC/C=C(\C)CCC=C(C)C)=C(C)C1=O [UQ8, ubiquinone 8]",rescue of growth of the iΔCoq1 mutant with ATc,[1]; 5 μM ubiquinone,no rescue
CC(C)=CCC/C(C)=C/CNCCNC1C2CC3CC(C2)CC1C3 (stereo not drawn) [SQ109],EC50,[2],1730 ± 380 nM
same,EC50,[3],1800 ± 470 nM
Cc1[nH]c2c(c(=O)c1-c1ccc(Oc3ccc(OC(F)(F)F)cc3)cc1)CCCC2 [JAG-21],% Inhibition (cytotoxicity),[4]; [11],6.40 ± 5.50%
same,% Inhibition (cytotoxicity),[4]; [12],5.75 ± 4.98%
same,rescue of growth inhibition by UQ6,[5],not rescued
same,EC50,"[5]; with ubiquinone Q6 (10 μM) in the culture, read-out: EC50 + UQ6",70 ± 1 nM
same,EC50,"[5]; without UQ6, read-out: EC50",49 ± 20 nM
CCCCCCCCn1cc[n+](CC(P(=O)([O-])O)P(=O)(O)O)c1 (stereo not drawn) [BPH-1217],% Inhibition (cytotoxicity),[4]; [11],8.01 ± 1.82%
same,% Inhibition (cytotoxicity),[4]; [12],6.19 ± 9.55%
CCCCCCCCCCCCCCn1cc[n+](CC(P(=O)([O-])O)P(=O)(O)O)c1 (stereo not drawn) [BPH-1219],% Inhibition (cytotoxicity),[4]; [11],3.20 ± 2.89%
same,% Inhibition (cytotoxicity),[4]; [12],8.01 ± 1.82%
"COC1=C(OC)C(=O)C(C/C=C(\C)CC/C=C(\C)CC/C=C(\C)CC/C=C(\C)CC/C=C(\C)CC/C=C(\C)CC/C=C(\C)CC/C=C(\C)CC/C=C(\C)CCC=C(C)C)=C(C)C1=O [UQ10, ubiquinone 10]",rescue of growth of the iΔCoq1 mutant with ATc,[1]; 5 μM ubiquinone,no rescue
O=C1C(O)=C([C@H]2CC[C@H](c3ccc(Cl)cc3)CC2)C(=O)c2ccccc21 [Atovaquone],rescue of growth inhibition by UQ6,[5],modest rescue
same,EC50,[2],30 ± 10 nM
same,EC50,[3],40 ± 10 nM
CCCCCCCCC(O)(P(=O)(O)O)P(=O)(O)O [BPH-252],IC50,[6],130 ± 50 nM
same,IC50,[7],2130 ± 520 nM
same,IC50,[5],850 ± 140 nM
"COC1=C(OC)C(=O)C(C/C=C(\C)CC/C=C(\C)CC/C=C(\C)CC/C=C(\C)CC/C=C(\C)CCC=C(C)C)=C(C)C1=O [UQ6, Ubiquinone Q6]",rescue of growth of the iΔCoq1 mutant with ATc,[1]; 5 μM ubiquinone,rescue
same,rescue of growth of the iΔCoq1 mutant with ATc,[1]; 10 μM ubiquinone,rescued
"CC(C)=CCC/C(C)=C/COP(=O)(O)OP(=O)(O)O [GPP, geranyl diphosphate]",Kcat,[8],0.012 ± 0.001 min⁻¹
same,Km,[8],0.88 ± 0.6 µM
same,Vmax,[8],6.16 ± 0.45 nmol/min/mg
CCCCCCCCCn1cc[n+](CC(O)(P(=O)([O-])O)P(=O)(O)O)c1 (stereo not drawn) [BPH-1238],% Inhibition (cytotoxicity),[4]; [11],9.77 ± 1.18%
same,% Inhibition (cytotoxicity),[4]; [12],13.37 ± 6.08%
CCCCCCCCCCCCCCCn1cc[n+](CC(O)(P(=O)([O-])O)P(=O)(O)O)c1 (stereo not drawn) [BPH-1325],IC50,[6],700 ± 60 nM
same,IC50,[7],1690 ± 460 nM
same,IC50,[5],1650 ± 890 nM
CCCCCCCCCCCn1cc[n+](CC(O)(P(=O)([O-])O)P(=O)(O)O)c1 (stereo not drawn) [BPH-1236],% Inhibition (cytotoxicity),[4]; [11],4.13 ± 1.20%
same,% Inhibition (cytotoxicity),[4]; [12],9.10 ± 2.38%
"CC(C)=CCC/C(C)=C/CC/C(C)=C/CC/C(C)=C/COP(=O)(O)OP(=O)(O)O [GGPP, geranylgeranyl diphosphate]",Kcat,[8],0.165 ± 0.005 min⁻¹
same,Km,[8],14.1 ± 1.43 µM
same,Vmax,[8],82.98 ± 2.51 nmol/min/mg
B1,Km,[9]; [13],139.11 ± 17.68 µM
same,kcat/Km,[9]; [13],134 M⁻¹ s⁻¹
same,Km,[9]; [14],141.89 ± 35.75 µM
same,kcat/Km,[9]; [14],87.5 M⁻¹ s⁻¹
same,Km,[9]; [15],145.48 ± 1.18 µM
same,kcat/Km,[9]; [15],6.5 M⁻¹ s⁻¹
same,Km,[10],12.37 ± 1.83 µM
same,kcat/Km,[10],609 M⁻¹ s⁻¹

# Reference: paper PMC9600589, “The Heptaprenyl Diphosphate Synthase (Coq1) Is the Target of a Lipophilic Bisphosphonate That Protects Mice against Toxoplasma gondii Infection” (mBio, 2022)
